Measurements from the METLIN SMRT retention time set (Domingo-Almenara et al. 2019).

Assay: gradient 5% acetonitrile 3 min, to 50% in 2 min, to 85% in 15 min, held 3 min, 100 µL/min
Conditions: column: Zorbax Extend-C18 2.1 x 50 mm; eluents: water / acetonitrile, 0.1% formic acid
Summary of the method: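 The system's dead and dwell volumes were 40 μL and 900 μL, with a Zorbax Extend-C18 column (2.1 × 50 mm, 1.8 μm) run at 100 μL/min in water and acetonitrile containing 0.1% formic acid each. Pure standards were analyzed in mixtures of ~100 molecules by HPLC–quadrupole time-of-flight mass spectrometry in positive and negative ionization mode. Retention time was assigned from computationally picked, manually inspected adduct peaks.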

| Structure (SMILES) | RP-LC retention time |
| --- | --- |
| CN1C(=O)COc2cc(-c3noc(C(=O)N4CCCC4)n3)ccc21 | 746 s |
| Cc1noc(-c2cccn2C)n1 | 744 s |
| Cc1cccc(C)c1NC(=O)Cn1nc(N2CCOCC2)c2ccccc2c1=O | 744 s |
| O=c1c2ccccc2c(-c2nc(-c3ccncc3)no2)cn1-c1ccc(Cl)cc1 | 1140 s |
| CC1=C(C(=O)OCCc2ccccc2)C(c2ccc(F)cc2)NC(=O)N1 (centres undefined) | 862 s |
| O=C(Nc1cnc(N2CCCCCC2)nc1)C1CCCC1 | 844 s |
| CN(C)c1nc2ncn3c(=O)n(CC(=O)NCCc4ccc(Cl)cc4)nc3c2s1 | 706 s |
| CC1(C(=O)NC2CCCCCC2)Cn2c(cc3occc32)C(=O)N1Cc1ccccn1 (centres undefined) | 766 s |
| CCn1cc(-c2nc(CC(=O)NCc3cccc(Cl)c3)cs2)c2cccnc21 | 903 s |
| Cc1oc(-c2[nH]ncc2C(=O)N2CCCC2)cc1S(=O)(=O)NCc1ccc(F)cc1F | 710 s |
| COC(=O)C1C(=O)C2=C(CC1C)Nc1ccccc1NC2c1ccc(Cl)cc1 (centres undefined) | 852 s |
| Cn1ncc(N2CCC(C(=O)N3CCc4ccccc43)C2)cc1=O (centres undefined) | 714 s |
| COC(=O)c1cc2c(=O)n(-c3nc(-c4ccc(Cl)cc4)cs3)ccc2nc1C | 1420 s |
| COc1ccc(NC(=O)c2cn3c(n2)CCCC3)cc1F | 601 s |
| CCN(CC)CCNC(=O)c1sc(COc2ccccc2)nc1C | 638 s |
| CC(=O)Nc1ccc(SCCCC(=O)Nc2ccc3c(c2)OCCO3)nn1 | 634 s |
| COc1ccc2[nH]c(=O)c(CCC(=O)Nc3ccc(OC)c(OC)c3)cc2c1 | 666 s |
| CCN1CCCn2cc(S(=O)(=O)Nc3ccc(F)cc3Cl)cc2C1=O | 738 s |
| COc1ccc(CNC(=O)Cn2nc(C(=O)N3CCCC3)c3ccccc32)cc1 | 773 s |
| COC(=O)c1cc(OCC(=O)Nc2ccc(F)cc2F)c2cc(OC)ccc2n1 | 822 s |
| Cc1ccc(-c2cc(OCC(N)=O)c3cc(NC(=O)COc4ccccc4)ccc3n2)cc1 | 700 s |
| CN(CC1CCCO1)C1CCN(C(=O)C2CCN(c3ccc(-c4cccs4)nn3)CC2)CC1 (centres undefined) | 567 s |
| CCc1nn(CC(=O)NCCc2c[nH]c3ccccc23)c(=O)c2cc3sc(C)cc3n12 | 894 s |

| Structure (SMILES) | RP-LC retention time |
| --- | --- |
| O=C(C1CCCC1)N1CCCC1c1nc(C2CCOCC2)no1 (centres undefined) | 725 s |
| Cn1cc(S(=O)(=O)N2CCCCC2)cc1C(=O)Nc1ccc(F)c(Cl)c1 | 1100 s |
| COc1ccc(C(=O)N(C)CC2(C)CCOCC2)cc1OC | 677 s |
| COc1ccc(OC)c(Nc2c(-c3ccc(Cl)cc3)nc3cnccn23)c1 | 968 s |
| Cc1cc(OCC(=O)NCc2ccco2)nc(N2CCC(C)CC2)n1 | 650 s |
| COc1cc(NC(=O)C2CCN(c3c(C(=O)N4CCC(C)CC4)cnc4snc(C)c34)CC2)cc(OC)c1 | 1010 s |
| Cc1ccc(C(O)CN2CCN(c3ccccc3C)CC2)cc1 (centres undefined) | 718 s |
| CCCC(NC(=O)c1ccccc1)C(=O)Nc1nc2ccccc2[nH]1 (centres undefined) | 688 s |
| CCOC(=O)c1[nH]c(C)c(CN(Cc2ccco2)C(=O)c2ccco2)c1C | 902 s |
| COc1cc(NC(=O)NCCc2nc3cccnc3n2C2CCCCC2)cc(OC)c1OC | 693 s |
| Cc1cccc(S(=O)(=O)Nc2ccc(-c3cn4ccc(C)nc4n3)cc2)c1 | 659 s |
| CN(C)S(=O)(=O)c1ccc2c(c1)N(CC(=O)N1CCCCC1)C(=O)C1CCCCN21 (centres undefined) | 812 s |
| C=CCNC(=O)N1CCCN(C2=NS(=O)(=O)C(c3ccc(F)cc3)=C2C)CC1 | 736 s |
| Cc1c(Cl)cccc1NC(=O)CSc1nnc2c3cc(-c4ccc(F)cc4)nn3ccn12 | 936 s |
| CCc1ccc(NC(=O)C2CCCN(S(=O)(=O)c3c[nH]c(C(=O)N4CCCCCC4)c3)C2)cc1 (centres undefined) | 923 s |
| CCNC(=O)NCCc1cn(CCOC)c2ncccc12 | 579 s |
| O=C(CSc1ncccn1)N1CCc2ccccc21 | 720 s |
| CCOc1ccccc1NC(=O)N1CCC2(CC1)NC(=O)c1cc(Cl)ccc1N2C | 904 s |
| O=C(N1CCC[C@H]1c1nc(-c2ccccc2)n[nH]1)C1(c2ccccc2)CC1 | 785 s |
| COc1ccc(-c2nnc(-c3ccccc3)o2)cc1S(=O)(=O)N1CCC(C(=O)O)CC1 | 774 s |
| COCCN1CN=C(Nc2nc(C)c3ccccc3n2)NC1 | 589 s |
| CC1(c2noc(C3CCOCC3)n2)CCN(Cc2c(F)cccc2Cl)CC1 | 612 s |
| CS(=O)(=O)Nc1ccc(C2(C(=O)N3CCN(c4ccccc4)CC3)CCCCC2)cc1 | 674 s |

| Structure (SMILES) | RP-LC retention time |
| --- | --- |
| O=C(NCc1ccco1)C1CCN(c2cc(N3CCSCC3)ncn2)CC1 | 620 s |
| CN(CCc1noc(-c2ccc(C(=O)NCCCN3CCCC3)cc2)n1)C(=O)c1ccc(F)cc1 | 623 s |
| O=C(c1cccs1)N1CCC2(CC1)NC(=O)N(Cc1ccc(F)cc1)C2=O | 764 s |
| O=C(Cn1cccc1-c1nnc(-c2ccccc2)o1)N1CCC2(CC1)OCCO2 | 834 s |
| COc1ccc(-c2nc3ncccn3c2NCc2ccc(C)cc2)cc1OC | 709 s |
| CC(C)(C)c1ccc(-c2noc(-c3nn(-c4cccc(F)c4)ccc3=O)n2)cc1 | 1140 s |
| COc1ccc(-c2nc3cccnc3n2C2CCN(S(=O)(=O)c3ccccc3)C2)cc1 (centres undefined) | 778 s |
| O=S(=O)(Cc1ccccc1)N1CC(c2nc(Cc3ccccc3)no2)C1 | 1010 s |
| O=C(CSc1nnc(-c2ccccc2F)o1)Nc1nccs1 | 691 s |
| COc1ccc(-c2nnc(-c3cccnc3N3CCN(c4ccccc4C)CC3)o2)cc1 | 1280 s |
| O=C(O)C1CCN(S(=O)(=O)c2ccccc2[N+](=O)[O-])CC1 | 701 s |
| CCOCCCNC(=O)C1CCN(S(C)(=O)=O)c2cc(Cl)ccc2O1 (centres undefined) | 783 s |
| NS(=O)(=O)c1ccc(CCNC(=O)Cn2nc3c(N4CCOCC4)nccn3c2=O)cc1 | 613 s |
| COc1ccccc1NC(=O)Cn1nc2c3sc(N(C)C)nc3ncn2c1=O | 690 s |
| CCOC(=O)C1=C(CN2CCN(C3CCCCC3)CC2)NC(=O)NC1c1ccccc1 (centres undefined) | 658 s |
| Cc1ccc(-n2nc(N3CCN(C(=O)Nc4ccccc4C)CC3)ccc2=O)cc1 | 787 s |
| CN1CCC(Nc2ncc3ncnc(Nc4ccc(F)c(Cl)c4)c3n2)CC1 | 710 s |
| CCc1noc(NC(C)=O)c1-c1ccc(C)c(S(=O)(=O)Nc2c(C)cccc2C)c1 | 861 s |
| O=C(NCCc1c[nH]c2ccccc12)c1cc(=O)c(OCc2ccc(F)cc2)co1 | 765 s |
| Cc1ccc(CNC(=O)C2(C)CN(S(C)(=O)=O)CC(=O)N2c2cccc(F)c2)cc1 (centres undefined) | 818 s |
| Cn1ccnc1C(=O)N1CCC(Cc2noc(C3CC3)n2)C1 (centres undefined) | 590 s |
| COC(=O)c1cc2c([nH]c1=O)CC(c1ccc(Cl)cc1)CC2=O (centres undefined) | 728 s |
| COc1cc(NC(=O)COc2cc(C)nc(N3CCCC3)n2)cc(OC)c1OC | 602 s |

| Structure (SMILES) | RP-LC retention time |
| --- | --- |
| O=C(CC1c2ncccc2C(=O)N1Cc1ccc(F)cc1)NCc1cc(F)ccc1F (centres undefined) | 735 s |
| CCN1CCN(CCNC(=O)Cc2cccn2-c2ccc(Cl)cc2)CC1 | 612 s |
| COCc1cnc2c(c1SCc1ccc(F)cc1)c(=O)n(C)c(=O)n2C | 997 s |
| O=C(c1ccco1)N1CCCC(c2cc(-c3ccc(F)cc3)n[nH]2)C1 (centres undefined) | 674 s |
| COc1ccc(NC(=O)c2cn(-c3cc(N4CCCC4)ncn3)cn2)c(OC)c1 | 891 s |
| CC(C)C(=O)NCC12CCCC=C1N(C)C(=O)CC2 (centres undefined) | 660 s |
| CCOC(=O)c1noc2ncnc(Nc3ccccc3C)c12 | 1010 s |
| CC(C)(C)C(=O)N1CCC(C(=O)Nc2ccc(S(=O)(=O)N3CCCC3)cc2)CC1 | 792 s |
| Cc1ccc(N2C(=O)CC(Nc3ccc(N4CCOCC4)cc3)C2=O)c(Br)c1 (centres undefined) | 618 s |
| Cc1cn2c(CCC(=O)NCCOc3ccc(F)cc3)csc2n1 | 566 s |
| COc1ccc(C(O)CN2CCN(C3CCCCC3)CC2)cc1 (centres undefined) | 540 s |
| COCC(=O)N1CCC(Oc2nccnc2N(C)C)C1 (centres undefined) | 598 s |
| O=C1NCCCn2cc(S(=O)(=O)N3CCN(c4cccc(C(F)(F)F)c4)CC3)cc21 | 830 s |
| Cc1ccc(CNC(=O)N2CCN(C(=O)N3C[C@H]4C[C@@H](C3)[C@H]3CCCC(=O)N3C4)CC2)cc1 | 677 s |
| CC1=C(C(=O)N2CCOCC2)C(c2cc(Br)ccc2F)C2=C(CCCC2=O)N1 (centres undefined) | 659 s |
| COc1ccc2c(c1)C1(CCN(S(=O)(=O)c3ccc(OC)c(OC)c3)C1)C(=O)N2 (centres undefined) | 757 s |
| CSc1ccc(-c2noc(Cn3c(=O)n(-c4ccccc4F)c(=O)c4sccc43)n2)cc1 | 1040 s |
| CCCC(=O)O[C@]1(C(=O)CO)CC[C@H]2[C@@H]3CCC4=CC(=O)CC[C@]4(C)[C@H]3[C@@H](O)C[C@@]21C | 1010 s |
| CCC(=O)N(CCC1CCOC(C)(C)C1)Cc1ccc(OC)cc1 (centres undefined) | 896 s |
| COc1cc2c(cc1CNC(=O)Cn1c(C)nc3cc4c(cc31)OCCO4)OCCCO2 | 643 s |
